The results in this text go back to US11352391B2, “Compositions for inducing urinary voiding and defecation” (Dignify Therapeutics, LLC, priority 2017, dated 2022).

Data set [1] can be described thus: Saline solubility of heptapeptides. Type of data set: physicochemical. How it is done: Heptapeptides A-K shown below in Table 1 (SEQ ID NOs: 1-11) were synthesized according to standard Fmoc-mediated solid-phase techniques and purified under typical C18 reverse-phase conditions.
Compounds D-K were considered to be insoluble in saline (<1 mg/mL).

The target in data set [2] is T1, human NK2 Receptor (hNK2R) (Homo sapiens, UniProt P21452).
T1 sequence (P21452 1-398): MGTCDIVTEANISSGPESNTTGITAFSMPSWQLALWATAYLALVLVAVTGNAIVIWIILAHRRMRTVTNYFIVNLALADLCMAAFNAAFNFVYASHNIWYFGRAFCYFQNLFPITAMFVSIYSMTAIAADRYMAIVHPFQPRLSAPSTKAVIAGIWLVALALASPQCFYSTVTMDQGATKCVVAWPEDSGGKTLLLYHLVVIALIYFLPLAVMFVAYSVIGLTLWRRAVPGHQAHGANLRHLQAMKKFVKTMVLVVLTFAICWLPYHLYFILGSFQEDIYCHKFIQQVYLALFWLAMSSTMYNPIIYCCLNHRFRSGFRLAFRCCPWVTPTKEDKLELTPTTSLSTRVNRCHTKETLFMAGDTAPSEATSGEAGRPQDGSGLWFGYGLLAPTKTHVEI
The experiment in a line: [125I]-NKA radioligand competition binding to human recombinant NK2Rs (CHO-hNK2 membranes). As to conditions: for Ki: displacement of 0.1 nM [125I]-NKA, CHO-hNK2 membranes, read-out: hNK2 binding Ki; for hNK2 selectivity ratio: ratio of Kis hNK1R/hNK2R. How it is done:
(§1) After removal of the supernatant the cell pellet was washed and collected by re-suspension in PBS and centrifugation.
(§2) Frozen pellets were thawed and homogenized in 10 volumes (w/v) of membrane preparation buffer (50 mM HEPES pH 7.4, 1 mM EDTA, 50 μg/mL bacitracin and protease inhibitors) using a Polytron Ultraturrax (twice for 15 s per cycle). […] Protein concentration was determined using BioRad Protein Assay (Milan, Italy) with a BSA standard curve.

The target of data set [3] is human NK1 Receptor (hNK1R) (Homo sapiens, UniProt P25103). The experiment in a line: [3H]-septide radioligand competition binding to human recombinant NK1Rs (CHO-hNK1 membranes). The conditions noted are these: displacement of 5.0 nM [3H]-septide, CHO-hNK1 membranes; read-out: hNK1 binding Ki. How it is done:
as §1, §2
Background: Loss of bound radioactivity is the signal in a displacement assay; it reports binding, not function.

Data set [4] addresses T2, recombinant hNK2R expressed in CHO cells (Homo sapiens, UniProt P21452).
T2 sequence (P21452 1-398): T1 sequence (P21452 1-398)
Put plainly: Intracellular calcium mobilization (FLIPR) in CHO-hNK2 cells. Type of data set: cell-based. As to conditions: for EC50: calcium mobilization, CHO-hNK2 cells, read-out: hNK2 EC50; for hNK2 selectivity ratio: ratio of EC50s hNK1R/hNK2R. As for the experimental part:
(§3) CHO-hNK1 and CHO-hNK2 cells were seeded into black walled clear-bottom 384-well plates) at a density of 10,000 and 15,000 cells per well in 50 μL culture media, respectively, and grown overnight at 37° C. in a humidified CO2-incubator. Cells were washed in washing buffer using the EMBLA 384 instrument, leaving 20 μL of buffer per well after the final aspiration. Cells were then incubated at 37° C. with the cytoplasmic Ca2+ indicator Fluo-4 AM (final concentration 1 μM) in assay buffer (20 mM HEPES, 145 mM NaCl, 5 mM KCl, 5.5 mM glucose, 1 mM MgCl2 and 2 mM CaCl2, pH 7.4, 0.05% Pluronic F-127 and 0.1% BSA) containing 2.5 mM probenecid for […] (cell loading). Cells were then washed 3 times in washing buffer (20 mM HEPES, 145 mM NaCl, 5 mM KCl, 5.5 mM glucose, 1 mM MgCl2 and 2 mM CaCl2, pH 7.4 and 2.5 mM probenecid) using the EMBLA 384 instrument, leaving 30 μL of buffer in each well after the last wash. Loaded cell plates were transferred to the FLIPR machine and calcium responses were monitored as described below. A dual read-out FLIPR protocol was used, allowing for characterization of both agonist and antagonist profiles. For quality control, in each compound plate the signal was monitored by evaluating the responses to the reference standards (NKA and Substance P).
(§4) Concentration response curves of compounds were run in duplicate on two different occasions from the same stock solutions. Test solutions were prepared from 10 mM stock solutions in DMSO and 1 μL of each solution was stamped into V-bottom assay plates containing 49 μL assay buffer. The final concentration of DMSO was 0.5% in each well.

Data set [5] concerns the target recombinant hNK1R expressed in CHO cells (Homo sapiens, UniProt P25103). Put plainly: Intracellular calcium mobilization (FLIPR) in CHO-hNK1 cells. The conditions noted are these: calcium mobilization, CHO-hNK1 cells; read-out: hNK1 EC50. Type of data set: cell-based. How it is done:
as §3, §4
A general note: Calcium flux is commonly read through the fluorescence of an indicator in the cells.

A short description of data set [6]: Pharmacokinetics in rat plasma after cassette IV bolus dosing. As to conditions: Sprague-Dawley, in vivo, iv. As for the experimental part:
The concentrations of compounds (SEQ ID NOS: 1-11) were measured in rat plasma after intravenous (IV) bolus dosing to determine pharmacokinetic profiles of individual compounds.
Animal preparation: In vivo studies were performed in anesthetized adult Sprague Dawley rats. Rats were anesthetized with urethane (1.2-1.4 g/kg subcutaneous injection). Surgical procedures were then performed with the addition of isoflurane anesthesia (0.05-1.5% in 02) as needed. A venous cannula was inserted into the jugular vein for intravenous (IV) administration of compounds.
In vivo dosing and plasma sampling: Compounds were divided into two groups (soluble and insoluble). Each group was dosed as a cassette in which four compounds (100 μg/kg each compound) were combined into a single IV bolus injection to anesthetized adult Sprague-Dawley rats. Soluble compounds were dissolved in saline. Insoluble compounds were dissolved in a 10% ethanol/saline solution. Rats were cassette dosed based on weight using 0.1 mg/mL solutions of individual compounds. Blood samples (700 μL) were collected using a carotid artery cannula into EDTA tubes containing ascorbic acid (final concentration 1%), and plasma was isolated.
Bioanalytical assay: A reversed-phase HPLC with Turbo Ion Spray MS/MS detection method was developed for bioanalysis. Mass spec transition and settings were individually optimized for each compound and then compounds were cassetted for HPLC method development and optimization. [^13C9; ^15N] [Lys5,MeLeu9,Nle10]-NKA(4-10) was used as an internal standard (IS). Analyte-to-IS peak area ratios for individual compounds were used to create linear calibration curves (1-20 ng/mL) using 1/×2 weighted least-squares regression analysis for evaluation of method linearity, precision and accuracy. For plasma concentration measurements, plasma samples were spiked with IS, processed by extraction, and analyzed using LC-MS/MS. Positive (M+H)+ ions for individual compounds and IS were monitored in MRM mode.

Data set [7] has as its system anesthetized dog. Put plainly: Colorectal pressure manometry in anesthetized dog. The conditions noted are these: for duration of colorectal pressure response: IV bolus (B and E 3 μg/kg; G 3, 30 and 66 ug/kg); for onset of increase in colorectal pressure: IV bolus (E 3 μg/kg; G 3, 30 and 66 ug/kg). In kind it is in vivo. As for the experimental part:
Animal preparation: Naïve beagle dogs were fasted for 12-24 hours and received a warm water enema the night prior to, and the morning of, the experiment to clear the rectum and lower colon of feces. The day of the experiment, a 20 gauge IV catheter (Terumo Surflo) was placed in the cephalic vein for anesthetic induction (propofol, 10 mg/kg; IV) and delivery of IV fluids (5-10 ml/kg/hr) and compounds. The sedated dog was intubated with a 5-6 Fr tracheal tube and was maintained on 2-3% isoflurane via a ventilator (15-25 breaths/min; tidal volume […]) for the remainder of the experiment.
Bowel contractility: For colorectal pressure manometry, an ˜3 inch balloon catheter was inserted into the rectum and secured to the tail with tape. This catheter was connected via a three-way stopcock to a pressure transducer (UTAH MEDICAL PRODUCTS; DelTran II) for pressure recording. Data were recorded using PowerLab/8SP acquisition system using LabChart software (version 7.3.7; ADINSTRUMENTS, Australia). Arterial pressure, ECG, temperature and blood oxygen saturation (spO2) were monitored throughout the experiment (MEDTRONIC LIFEPAK12). Dogs were recovered in a quiet room under veterinary supervision.

Where a SMILES comes first, the peptide text is derived from it.

Chain of recombinant hNK1R expressed in CHO cells (P25103 whole entry): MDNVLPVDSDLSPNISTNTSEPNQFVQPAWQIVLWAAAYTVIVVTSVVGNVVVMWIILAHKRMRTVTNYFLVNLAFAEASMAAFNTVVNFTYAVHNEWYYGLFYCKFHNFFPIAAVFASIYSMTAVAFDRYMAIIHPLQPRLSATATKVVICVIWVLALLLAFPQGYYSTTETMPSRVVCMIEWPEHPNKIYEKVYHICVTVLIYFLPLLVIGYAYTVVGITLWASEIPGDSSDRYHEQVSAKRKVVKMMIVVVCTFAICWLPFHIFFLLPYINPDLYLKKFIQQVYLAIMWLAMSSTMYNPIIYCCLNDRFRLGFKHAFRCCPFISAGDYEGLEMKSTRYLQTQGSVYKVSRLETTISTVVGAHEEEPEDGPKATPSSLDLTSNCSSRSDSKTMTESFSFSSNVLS
Chain of human NK1 Receptor (hNK1R) (P25103 whole entry): as above

`CCCC[C@H](NC(=O)[C@H](CC(C)C)NC(=O)CCNC(=O)[C@@H](NC(=O)[C@H](Cc1ccccc1)NC(=O)[C@H](CCCCN)NC(=O)[C@@H](N)CC(=O)O)C(C)C)C(N)=O` [Compound G, Asp-Lys-Phe-Val-(β-Ala)-Leu-Nle-NH2] (HELM PEPTIDE1{D.K.F.V.[bAla].L.[Nle].[am]}$$$$V2.0; N-terminus assumed) registered a solubility in data set [1] of under 1000 µg/mL. Further, the values for the inhibitory constant (Ki) in data set [2] and in data set [3] were 16.4 nM and 3090 nM, respectively. For the same compound, the hNK2 selectivity ratio came out at 188.58 in data set [2] and 26 in data set [4]. In addition, the results for the EC50 in data set [4] and in data set [5] were 3 nM and 78.2 nM, respectively. The compound also came in with a half-life in data set [6] of 3.3 to 4.7 min. Also, the “duration of colorectal pressure response” value in data set [7] is “approximately 5 minutes”. In addition, in data set [7], the “onset of increase in colorectal pressure” value is at most 1 min.
In data set [1], `CSCC[C@H](NC(=O)[C@H](CC(C)C)NC(=O)CCNC(=O)[C@@H](NC(=O)[C@H](Cc1ccccc1)NC(=O)[C@H](CCCCN)NC(=O)[C@@H](N)CC(=O)O)C(C)C)C(N)=O` [Compound E, Asp-Lys-Phe-Val-(β-Ala)-Leu-Met-NH2] (HELM PEPTIDE1{D.K.F.V.[bAla].L.M.[am]}$$$$V2.0; N-terminus assumed) returned a solubility of under 1000 µg/mL. In data set [2], the inhibition constant Ki came out at 2.11 nM and the hNK2 selectivity ratio was 122.04. The Ki in data set [3] turned out to be 257 nM. For the same compound, in data set [4], the EC50 came out at 0.18 nM and the hNK2 selectivity ratio is 36. Moreover, the half-maximal effective concentration (EC50) in data set [5] came to 6.31 nM. For the same compound, in data set [6], the half-life lay within 3.3 to 4.7 min. In data set [7], the “duration of colorectal pressure response” value is listed as “approximately 4 minutes” and the “onset of increase in colorectal pressure” value is at most 1 min.

What is called solubility is the concentration that dissolves in the medium under given conditions. Read a high solubility as much dissolved substance. As usually defined, the Ki is a measure of affinity in units of concentration, obtained from inhibition or displacement. In general, EC50 refers to the concentration that produces a half-maximal response. As a reminder, the half-life is the time in which the quantity being followed falls by half.
